Legend:
Hsp70 [1] = experiment: Western blot of Hsp70 protein in avicin D treated Jurkat cells; type: cell-based, human; settings: avicin D 1 μM, within one hour up to 4 hours, western blot vs untreated
Method: (§1) Jurkat T cells (2 μg/ml=1 μM), U-937 (4 μg/ml), MJ (5 μg/ml), and HH cells (2.5 μg/ml) were treated for 0-24 hours with the indicated concentrations of avicin D. PBLs from the patients or normal blood were treated with 5 μg/ml of avicin D for 24 hours.
(§2) At the end of treatments, cells were harvested, washed with sterile ice-cold PBS and cytoplasmic extracts (CE) were prepared by lysing the cells in CE buffer containing 10 mM Hepes-Cl pH 7.5, 10 mM KCl, 0.1 mM EDTA, 0.1 mM EGTA, 0.3% NP40, and a protease inhibitor cocktail (Sigma). After centrifugation and separating the supernatant (CE proteins), the pellet was resuspended in a buffer containing 20 mM Hepes-Cl, 400 mM NaCl, 1 mM EDTA, 1 mM EGTA, and protease inhibitor cocktail (Sigma). The nuclear protein extraction proceeded for 30 min. on ice followed by centrifugation at 14,000 rpm for 5 min at 4° C. The clear supernatant containing nuclear proteins (NE) was collected, glycerol (10%) was added, and proteins stored at −80° C. until use.
(§3) SDS-PAGE and immunoblot procedures were essentially performed as described (Sambrook, 1989). Briefly, cytoplasmic and nuclear proteins were resolved on SDS-PAGE, blotted on PVDF membranes (BioRad) and probed with various antibodies followed with anti-rabbit, anti-mouse antibody conjugated to horseradish peroxidase (HRP) from BioRad or HRP conjugated anti-goat antibody from Santa Cruz Biotechnology, corresponding to the primary antibody. Protein bands were detected using the ECL chemiluminescence kit from Amersham as per the manufacturer's protocol.
(§4) Quantitation of proteins (western) and transcripts (RT-PCR) was performed using the NIH 1.61 image software.

Hsp90β transcript = experiment: One-step RT-PCR of Hsp90β transcript in Jurkat cells; type: cell-based, human; settings: as early as 30 minutes
Method: Total RNA purified using Trizol method (Invitrogen) was subjected to DNAseI (RNAase free, Sigma Chemical Co.) treatment to remove any residual DNA, followed by heat inactivation and addition of 1 mM EDTA. Absence of genomic DNA was confirmed by performing PCR using Taq DNA polymerase. About 50-100 ng of purified total RNA was used in a one-step RT-PCR reaction kit from Invitrogen in a Techne Genius machine. The samples were separated on 0.8% agarose-TBE gels and viewed by staining with ethidium bromide.
as §4

Hsp90 transcript = experiment: Northern blot of Hsp90 transcript in Jurkat cells; type: cell-based, human
Excerpt: Total RNA from the control and avicin treated Jurkat T cells was made using Trizol (Invitrogen). Equal amounts of RNA were separated on form amide gels and transferred to nylon membranes (Hybond N+, Amersham) and UV cross-linked using UV Stratalinker (Stratagene). Staining the membranes with 0.03% methylene blue solution in 0.3% sodium acetate, pH 5.2, monitored equal loading. The DNA probes for Hsp70 and Hsp90 were purchased from StressGen as pUC plasmids and used according to the manufacturer's protocol. The DNA fragments were radiolabeled using a Nick Translation kit from Gibco BRL and [^32P] dCTP (Amersham). The membranes were exposed for autoradiography after hybridization using ExpressHyb (Clontech) solution at 58° C. for 1 hour and 5 washes, each of 20 minutes, with 5× SSC containing 0.1% SDS at 50° C.

CHIP = experiment: Western blot of CHIP in Jurkat cells; type: cell-based, human; settings: same conditions as E3α
Method: as §1, §2
(§5) SDS-PAGE and immunoblot procedures were essentially performed as described (Sambrook, 1989). […] Protein bands were detected using the ECL chemiluminescence kit from Amersham as per the manufacturer's protocol.

XIAP [2] = experiment: Western blot of XIAP protein in Jurkat cells; type: cell-based, human
Method: as §1, §2, §3, §4

20S proteasomal activity = target: T1, 20S proteasomal activity (Homo sapiens, UniProt Q99436); experiment: 20S proteasomal assay in Jurkat cells; type: cell-based; settings: for decrease in the 20S proteasomal activity: avicin D 1 μM
T1 construct: Proteasomal extracts (PE) were prepared; endogenous in cells; host or cells: Jurkat T cells (proteasomal extracts)
T1 sequence (Q99436 44-277): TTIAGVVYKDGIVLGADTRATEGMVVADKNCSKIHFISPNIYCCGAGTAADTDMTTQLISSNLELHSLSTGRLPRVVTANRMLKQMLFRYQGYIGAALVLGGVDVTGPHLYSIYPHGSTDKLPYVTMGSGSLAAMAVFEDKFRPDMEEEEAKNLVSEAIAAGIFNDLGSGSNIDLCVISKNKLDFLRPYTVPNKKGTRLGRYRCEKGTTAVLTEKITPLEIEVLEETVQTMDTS
Method: Jurkat T cells were treated with 1 μM of avicin D for 0-4 hours. Proteasomal extracts (PE) were prepared as described previously (18) in a buffer containing 50 mM Hepes pH 8, 5 mM EGTA, 0.3% NP40, and 10% glycerol. The assay reaction contained 20 mM Tris-Cl pH7.2, 0.1 mM EDTA, 1 mM β-mercaptoethanol, 5 mM ATP, 20% glycerol, 0.02% SDS, and 0.04% NP40. About 10 μg of the PE proteins and BocLRR-AMC (0.1 mM), which allows measurement of the trypsin-like activity of proteasomes, was used as substrate. The reaction was carried out at 30° C. for 30 minutes and the fluorescence was read at 380 nm (excitation) and 460 nm (emission) in a Perkin Elmer HTS 7000 Plus, Bioassay Reader.
Statistical significance of differences observed in the proteasomal activity in avicin treated cells compared with the untreated cells was determined by using an unpaired Student t test. The minimum level of significance was a P<0.05.

caspase 3 = experiment: Western blot of caspase 3 activation in Jurkat cells; type: cell-based, human; settings: 2-4 hours
Method: as §1, §2, §5

Hsp70 [3] = experiment: Western blot of Hsp70 in leukemic/lymphoma cell-lines; type: cell-based, human; settings: Jurkat, U937, MJ-1, and HH cells, 24 hours post-treatment
Method: (§6) Human Jurkat T cell leukemia, monocytic U937 cells, and cutaneous T-cell lymphoma (CTCL) cell lines MJ (G11) and HH were obtained from American Type Culture Collection (Rockville, Md.) and grown in RPMI 1640 medium supplemented with 10% FBS and 2 mM glutamine.
as §1
as §2, with “The nuclear protein extraction proceeded for 30 min. on ice followed by centrifugation at 14,000 rpm for 5 min at 4° C. The clear supernatant containing nuclear proteins (NE) was collected, glycerol (10%) was added, and proteins stored at −80° C. until use.” left out
as §5, §4

XIAP [4] = experiment: Western blot of XIAP in leukemic/lymphoma cell-lines; type: cell-based, human; settings: Jurkat, U937, MJ-1, and HH cells, 24 hours post-treatment
Method: as §6, §1
as §2, with “The nuclear protein extraction proceeded for 30 min. on ice followed by centrifugation at 14,000 rpm for 5 min at 4° C. The clear supernatant containing nuclear proteins (NE) was collected, glycerol (10%) was added, and proteins stored at −80° C. until use.” left out
as §5, §4

XIAP [5] = experiment: Western blot of XIAP in primary PBL from Sezary syndrome patients; type: cell-based, human; settings: 5 μg/ml, 24 hours
Method: as §1, §2, §5, §4

CTCL cells = experiment: Apoptosis in PBL from Sezary syndrome patients; type: cell-based, human
Method: as §1

Hsp70 [6] = experiment: Western blot of Hsp70 in normal PBL; type: cell-based, human; settings: PBL from a normal blood sample, 5 μg/ml, 24 hours
Method: as §1, §2, §5

XIAP [7] = experiment: Western blot of XIAP in normal PBL; type: cell-based, human; settings: PBL from a normal blood sample, 5 μg/ml, 24 hours
Method: as §1, §2, §5

[8] = test system: ubiquitin-protein conjugates; experiment: Western blot of ubiquitin-protein conjugates in Jurkat cells; type: cell-based, human; settings: from around 2 hours
Method: as §1, §2, §5

C=C[C@](C)(O)CC/C=C(\CO)C(=O)O[C@H]1[C@H](O)[C@@H](O)[C@H](O[C@@](C)(C=C)CC/C=C(\CO)C(=O)O[C@H]2C[C@]3(C(=O)O[C@@H]4O[C@H](CO)[C@@H](O)[C@H](O)[C@H]4O[C@@H]4O[C@@H](C)[C@H](O[C@@H]5O[C@@H](CO)[C@H](O)[C@H]5O)[C@@H](O[C@@H]5O[C@H](CO)[C@@H](O)[C@H](O)[C@H]5O)[C@H]4O)[C@H](O)C[C@]4(C)C(=CC[C@@H]5[C@@]6(C)CC[C@H](O[C@@H]7O[C@H](CO[C@@H]8O[C@H](C)[C@H](O)[C@H](O)[C@H]8O[C@@H]8OC[C@@H](O)[C@H](O)[C@H]8O)[C@@H](O)[C@H](O)[C@H]7NC(C)=O)C(C)(C)[C@@H]6CC[C@]54C)[C@@H]3CC2(C)C)O[C@@H]1C [avicin D]
protein levels of Hsp70 (Hsp70 [1]): significant decrease
increase in the Hsp90β transcript (RT-PCR) (Hsp90β transcript): ~1.4 fold
increase in Hsp90 transcript (Northern blot) (Hsp90 transcript): ~2 fold
levels of CHIP (CHIP): No significant change
XIAP degraded (XIAP [2]; by 1 hour): ~60%
XIAP protein level (XIAP [2]; starting at 1 hour post treatment): significant decrease
decrease in the 20S proteasomal activity (20S proteasomal activity; 2 hours): 33%
decrease in the 20S proteasomal activity (20S proteasomal activity; 4 hours): 41%
decrease in proteasome activity (20S proteasomal activity; during 2-4 hours of treatment): 30-40%
caspase 3 activation (caspase 3): caspase 3 activation
Hsp70 protein level (Hsp70 [3]): significant decrease
XIAP protein level (XIAP [4]): significant decrease
decrease in XIAP protein (XIAP [5]): 30-40%
apoptosis (CTCL cells): caused apoptosis
change in Hsp70 protein (Hsp70 [6]): no significant change
change in XIAP protein (XIAP [7]): no significant change
ubiquitin-protein conjugates in cell extracts [8]: protein conjugates observed

— US20090018146A1, “Combination Therapy with Triterpenoid Compounds and Proteasome Inhibitors” (Research Development Corporation, priority 2005, published 2009)
